# Measurements: patent US12577231B2, “Androgen receptor PROTACS” (GlaxoSmithKline Intellectual Property Development Limited, priority 2023, dated 2026)
# Residue numbers refer to the chain shown, from its start.
# How the values were obtained:
# Androgen receptor W742C = target: T1, Androgen receptor W742C (Homo sapiens, UniProt P10275, W742C); assay: Degradation of overexpressed Androgen Receptor in A549 cells (HiBiT), W742C; format: cell-based; conditions: A549 cells overexpressing AR W742C, cycloheximide, 24 hours
# T1 construct: expressed in transfected cells; host or cells: A549, transduced, puromycin selected
# T1 sequence (P10275 1-920 W742C): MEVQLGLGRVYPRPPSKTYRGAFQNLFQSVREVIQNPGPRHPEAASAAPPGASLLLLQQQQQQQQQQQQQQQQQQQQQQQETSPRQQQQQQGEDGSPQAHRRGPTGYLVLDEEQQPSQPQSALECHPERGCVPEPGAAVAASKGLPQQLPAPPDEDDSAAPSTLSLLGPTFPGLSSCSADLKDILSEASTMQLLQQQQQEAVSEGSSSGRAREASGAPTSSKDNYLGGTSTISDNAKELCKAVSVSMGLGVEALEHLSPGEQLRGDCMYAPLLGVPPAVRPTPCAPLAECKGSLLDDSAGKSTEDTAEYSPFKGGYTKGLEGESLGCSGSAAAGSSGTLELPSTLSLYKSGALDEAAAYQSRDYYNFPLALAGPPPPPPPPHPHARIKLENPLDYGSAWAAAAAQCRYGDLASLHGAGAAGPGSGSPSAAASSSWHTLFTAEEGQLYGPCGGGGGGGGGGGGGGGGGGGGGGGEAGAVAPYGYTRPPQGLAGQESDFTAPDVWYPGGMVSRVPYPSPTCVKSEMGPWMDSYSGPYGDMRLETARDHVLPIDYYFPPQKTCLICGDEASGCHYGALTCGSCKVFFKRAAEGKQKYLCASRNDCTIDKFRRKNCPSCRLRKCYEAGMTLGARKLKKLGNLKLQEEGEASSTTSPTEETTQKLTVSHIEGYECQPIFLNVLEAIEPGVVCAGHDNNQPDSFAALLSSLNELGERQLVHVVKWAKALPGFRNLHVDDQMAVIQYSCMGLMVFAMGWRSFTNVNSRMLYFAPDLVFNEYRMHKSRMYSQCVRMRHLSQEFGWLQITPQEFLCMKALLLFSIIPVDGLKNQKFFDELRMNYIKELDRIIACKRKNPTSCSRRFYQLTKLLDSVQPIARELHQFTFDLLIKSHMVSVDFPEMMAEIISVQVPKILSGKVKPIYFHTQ
# Method: (§1) A549 cells were transduced to express wild type androgen receptor and Androgen receptor containing the following mutations (L702H, H875Y W742C W742L F877L, T878A and T878A/H875Y) with HiBiT tags. Transduced cells following puromycin selection were maintained in a humidified incubator (at 37° C. and 5% CO2 in the DMEM medium supplemented with 1% (v/v) Pen/Strep, 1% (v/v) Glutamax and 10% (v/v) FBS. A549 cells expressing each AR construct were detached from plate and counted. Cell suspensions at density 0.2 million per mL were prepared. Cell suspension was supplemented with 100 μg/mL of cycloheximide to block protein synthesis. Cells were preincubated with cycloheximide for 1 hr before seeding. Cells were seeded onto 384-well plate at density of 5,000 in 25 μL per well. A two fold serial dilution of test compounds, starting from 1 μM (row A) in 2-fold serial dilution series across the column using Tecan D300e dispenser. […]
# (§2) Nano-Glo HiBiT Lytic reagent was prepared by adding LgBiT protein and Nano-Glo® substrate to lytic buffer pre-equilibrated at room temperature following manufacturer protocol (https://www.promega.co.uk/resources/protocols/technical-manuals/101/nanoglo-luciferase-assay-system-protocol). […] The plates were then centrifuged (100×G, 1 min) and incubated on shaker for 10 mins before taking readings on Pherastar Luminescence microplate reader. […]
# Androgen receptor W742L = target: T2, Androgen receptor W742L (Homo sapiens, UniProt P10275, W742L); assay: Degradation of overexpressed Androgen Receptor in A549 cells (HiBiT), W742L; format: cell-based; conditions: A549 cells overexpressing AR W742L, cycloheximide, 24 hours
# T2 construct: expressed in transfected cells; host or cells: A549, transduced, puromycin selected
# T2 sequence (P10275 1-920 W742L): T1 sequence (P10275 1-920 W742C) with C742L
# Method: as §1, §2
compound,measurement,setting,value
"COc1cc(O[C@H]2C(C)(C)[C@H](NC(=O)c3ccc(N4CCC(CN5CCC(n6ncc7c(N8CCC(=O)NC8=O)nccc76)CC5)CC4)c(F)c3)C2(C)C)ccc1C#N [Example 20, N-((1r,3r)-3-(4-Cyano-3-methoxyphenoxy)-2,2,4,4-tetramethylcyclobutyl)-4-(4-((4-(4-(2,4-dioxotetrahydropyrimidin-1(2H)-yl)-1H-pyrazolo[4,3-c]pyridin-1-yl)piperidin-1-yl)methyl)piperidin-1-yl)-3-fluorobenzamide]",Summary pXC50,Androgen receptor W742C,8.57
same,Summary pXC50,Androgen receptor W742L,8.93
